One compound from publication PMC9993459, “A novel selective spleen tyrosine kinase inhibitor SKI-O-703 (cevidoplenib) ameliorates lupus nephritis and serum-induced arthritis in murine models” (Clinical and Experimental Immunology, 2022) can be followed below.

In one data set the test system is NZB/W F1 mice. In words: NZB/W mouse model of SLE / lupus nephritis, oral dosing. The format is in vivo. On the procedure: NZB/W female mice aged 18 weeks were assigned to four groups by distributing mice by body weight and anti-dsDNA IgG titer equivalently across the groups. Each group of mice was administered orally with 42 mg per kg body weight (mpk) of SKI-O-703 dissolved in 50 mM citric acid, 84 mpk of SKI-O-703, 30 mpk of tofacitinib (Selleckchem) dissolved in 0.5% carboxymethyl cellulose (Sigma Aldrich) containing 0.025% Tween 20, or a mixture of the two vehicles. The drugs were given once daily up to 34 weeks of age. Body weight was measured every 2 weeks and serum was collected every 4 weeks. At the termination of the experiments (34 weeks of age), serum, urine, spleen, BM, and kidneys were removed post mortem and assayed by histopathological and biochemical methods as below. Levels of blood urea nitrogen (BUN) and creatinine were measured by Knotus (Incheon, Korea).
Kidneys removed from the NZB/W mice were fixed in 4% paraformaldehyde, embedded in paraffin, sectioned at 3 μm thickness, and stained with periodic acid-Schiff (PAS) and hematoxylin (Sigma Aldrich). […] Glomerular size was measured using Image J software. To assess the glomerular size and hypercellularity of each mouse, more than 20 glomeruli per mouse were individually examined and averaged.
Kidneys and spleens of NZB/W mice were embedded in OCT compound (Sakura Finetek, Torrance, CA, USA) and snap-frozen in liquid nitrogen. Frozen sections were fixed in acetone and blocked with 10% normal donkey serum (Sigma Aldrich). Kidney sections were stained with a 1:200 dilution of anti-IgG-biotin (Sigma Aldrich), anti-IgM-biotin (Southern Biotech) and anti-C3-biotin (Bioss), followed by reaction with 1:200-dilution of streptavidin-cy3 (Invitrogen). Spleen sections were stained with anti-GL7-FITC, anti-CD4-APC, and anti-IgD-PE (all from BD Biosciences or eBioscience). Fluorescence images were acquired using a TCS SP5 confocal microscope (Leica). The area of GCs composed with GL7^+ cells per image was calculated using ImageJ software (NIH, Bethesda, MD, USA).
Titers of anti-dsDNA IgG Ab were measured by ELISA, as described previously. In brief, sera were diluted 1/10 000 to 1/50 000 in PBS and applied to immunosorbent plates (Nunc) precoated with 5 μg/ml poly-L-lysine and 5 μg/ml thymic DNA (Sigma Aldrich). The serum containing the highest titer of anti-dsDNA IgG was serially diluted and used as standard. The plates were incubated with anti-mouse IgG-biotin (Sigma Aldrich) and streptavidin-HRP (BD Biosciences). The concentration of albumin in urine was measured by quantitative ELISA using a mouse albumin ELISA kit (Bethyl), according to the manufacturer’s instructions. The concentration of serum B-cell activating factor of the TNF family (BAFF) was quantitated using a BAFF/BLys/TNFSF13B ELISA Kit (R&D Systems).
Single-cell suspensions of spleen and LN cells were prepared as previously described. Joint tissues from hind paws of KSTA mice were dissected free of soft tissue and bones, digested with 100 μg/ml Liberase (Roche) for 45 min at 37 °C, and filtered through a 70-μm-pore cell strainer (SPL Life Sciences) to prepare single cell suspensions of synovial infiltrates. The single cell suspensions were stained with an appropriate combination of mAbs and analyzed by FACS. The mAbs used were: CD138-PE, B220-PerCP or -APC-cy7, FAS-PE, CD19-PerCP or -APC, CD21-FITC or -APC, CD43-APC, CD23-PE-cy7, CD8a-PE, CD25-APC-cy7, CXCR5-biotin, GL7-FITC, CD45.2-FITC, CD27-FITC, Ki-67-FITC, Gr-1-FITC, CD4-FITC or -APC-cy7, phospho-Syk-PE, CD11b-PE or -PerCP, PD-1-APC, CD44-APC-cy7, and F4/80-PerCP mAbs (all from BD Biosciences, eBioscience or Biolegend). Streptavidin-PerCP was purchased from BD Biosciences.
Splenic CD19^+ B cells from NZB/W mice were sorted by MACS, and lysed with Trizol reagent (Invitrogen) followed by standard methods of total RNA purification. The RNA was assayed by RT and quantitative PCR as described. […]

In a further data set the test system is mouse primary T cells. As to the kind of experiment: Annexin V/7-AAD apoptosis assay in TCR-engaged primary T cells. The format is cell-based. The following applies: up to 5 μM. Here is the method:
Supplementary F igure 1. SKI -O-592 and - 703 s p a re TCR- mediated signaling in T cells
(A) The stru cture of SKI-O-703. (B-D) Human per ipheral T cells sorted fro m human peripheral blood mononuclear cells (B and D) and mouse primary T cells sorted from spleen (C ) wer e stimulated with 5 µ g/ml anti- CD3 and 2 µ g/ml anti- CD28 m Abs in the presence or absence of inhibitors as indicated. Af ter one hour (B) and 24 h ours (C and D) of culture, cells we re assaye d […]
by immunoblotting (B), FA C S ( C), and ELISA (D). […]
of Zap70 and its downstream target PLCγ1. It’s effect on the suppression of IL-2 production […]
Supplementary F igure 2. Gating strategy for FACS of spleen cells
Erythrocyte-d epleted mo use spleen cells w ere assayed by FACS. Whole live cells were gated as shown: plasma cells (C D19lo/- CD138hi), GC B cells (CD19+ CD138- GL-7h i FA S hi), follicular B cells (CD19+ CD43- CD23hi CD21-), marginal zone B cells (CD19+ C D43- CD21hi CD23lo ), and Tfh cells (CD4+ CXCR5+ PD-1hi).
Supplementary Figure 3. Differential susceptibility of short-lived and long-lived plasma […]
When spleen cells from NZB/W mice were assay ed by FACS as in Fig. 5, they were stained intracellularly with anti- Ki-67 mAb to distinguish Ki-67+ dividing cells from Ki-67- non-dividing cells among t h e CD138hi population. […]

Setting [1] is: 84 mpk oral once daily, 18-34 weeks of age.
Where [2] appears, read: high dose (84 mpk), 34 weeks, FACS.

“Also recorded” adds a separate entry of the source.

Consider `CS(=O)(=O)O.CS(=O)(=O)O.Cc1nn(-c2ccnc(Nc3ccc4c(c3)c(C(=O)C3CC3)cn4C)n2)cc1CN1C[C@H](O)CO1` [SKI-O-703, (S)-cyclopropyl(5-((4-(4-((4-hydroxyisoxazolidin-2-yl)methyl)-3-methyl-1H-pyrazol-1-yl)pyrimidin-2-yl)amino)-1-methyl-1H-indol-3-yl)methanone dimesylate], for which the “Concentrations of BUN and creatinine” value in the data set on NZB/W F1 mice (42 mpk (low-dose), 34 weeks of age) was “significantly lowered”. Besides, the “Rise of serum anti-dsDNA IgG Ab level” value in the data set on NZB/W F1 mice (42 mpk oral once daily) is “did not have the same effect, and even temporarily elevated the Ab titer”. In addition, in the data set on NZB/W F1 mice (84 mpk (high dose)), the “Glomerular IgM and C3 staining intensities” value is listed as “significantly reduced”. Further, the “Concentrations of BUN and creatinine” value in the data set on NZB/W F1 mice (84 mpk (high-dose), 34 weeks of age) is given as “significantly lowered”. In addition, in the data set on NZB/W F1 mice (setting [1]), the Body weights result is given as “without significantly affecting body weights” and the Spleen weights entry is recorded as “significantly reduced spleen weights”. Also, the “Rise of serum anti-dsDNA IgG Ab level” value in the data set on NZB/W F1 mice (84 mpk oral once daily, P < 0.01 by two-way ANOVA) was “dramatically attenuated”. Moreover, the “Concentration of urinary albumin” value with NZB/W F1 mice (84 mpk, 34 weeks of age, vehicle mean 742.9 mg/dl) was “markedly reduced”. In the data set with NZB/W F1 mice (setting [2]), the “Number of splenic T cells” value is on record as “not significantly altered” and the Total spleen cells result is “significantly less numerous”. For the same compound, the “CXCR5+PD-1+ Tfh cells” value with NZB/W F1 mice (high dose (84 mpk), spleen) is on record as “reduced in number”. Besides, the “Splenic follicular, GC B cells and plasma cells” value in the data set on NZB/W F1 mice (high dose (84 mpk), vs vehicle controls) is “significantly less numerous”. For the same compound, the “Level of serum BAFF” value with NZB/W F1 mice (high dose, ELISA) is on record as “also reduced”. Also, the “BAFF receptor expression in splenic B cells” value with NZB/W F1 mice (high dose, quantitative RT-PCR) is recorded as “reduced level”. The BM hematopoiesis entry in the data set with NZB/W F1 mice (long-term treatment (16 weeks)) was “appeared not to interfere with BM hematopoiesis”. Moreover, in the data set on mouse primary T cells, the “Proportions of early and late apoptotic T cells” value is “did not promote apoptotic cell death; also recorded: failed to increase”.
